Experimental data: patent US12036224B2, “Formulations, methods, kits, and dosage forms for treating atopic dermatitis and for improved stability of an active pharmaceutical ingredient” (Libertas Bio, Inc., priority 2017, dated 2024)

Tested on: IL-17-SYK mediated CCL20 release, human keratinocytes
Assay: Inhibition of IL17 mediated CCL20 release in keratinocytes
Type: cell-based
Settings: single donor, n=3
Procedure: In FIG. 12, each bar represents mean and SEM for 3 replicates (n=3) of a single donor. FIG. 13 is a graph showing average weekly change in pruritus (NRS) for a placebo, and Compound 1 in the doses of 20 mg, 40 mg and 80 mg.

COc1cc(Nc2ncc(F)c(Nc3ccc4c(n3)NC(=O)C(C)(C)O4)n2)cc(OC)c1OC [Tamatinib, reference compound]
inhibition of IL-17-SYK mediated CCL20 release: unlike Tamatinib and Tofacitinib, Compound 1 inhibits
